Measured values from patent US10906910B2, “Substituted bicyclic pyrimidine compounds with tubulin and multiple receptor inhibition” (Duquesne University of the Holy Spirit, priority 2014, dated 2021).

Columns and labels:
OVCAR-3 = experiment: NCI 60 panel, Ovarian cancer OVCAR-3; assay type: cell-based; conditions: Homo sapiens, read-out: Tumor cell inhibitory activity (NCI) GI50
SK-MEL-28 = experiment: NCI 60 panel, Melanoma SK-MEL-28; assay type: cell-based; conditions: Homo sapiens, read-out: Tumor cell inhibitory activity (NCI) GI50
MOLT-4 = experiment: NCI 60 panel, Leukemia MOLT-4; assay type: cell-based; conditions: Homo sapiens, read-out: Tumor cell inhibitory activity (NCI) GI50
SF-268 = experiment: NCI 60 panel, CNS Cancer SF-268; assay type: cell-based; conditions: Homo sapiens, read-out: Tumor cell inhibitory activity (NCI) GI50
COLO 205 = experiment: NCI 60 panel, Colon Cancer COLO 205; assay type: cell-based; conditions: Homo sapiens, read-out: Tumor cell inhibitory activity (NCI) GI50
MDA-MB-468 = experiment: NCI 60 panel, Breast Cancer MDA-MB-468; assay type: cell-based; conditions: Homo sapiens, read-out: Tumor cell inhibitory activity (NCI) GI50
HCT-116 = experiment: NCI 60 panel, Colon Cancer HCT-116; assay type: cell-based; conditions: Homo sapiens, read-out: Tumor cell inhibitory activity (NCI) GI50
SN12C = experiment: NCI 60 panel, Renal Cancer SN12C; assay type: cell-based; conditions: Homo sapiens, read-out: Tumor cell inhibitory activity (NCI) GI50
HS 578T = experiment: NCI 60 panel, Breast Cancer HS 578T; assay type: cell-based; conditions: Homo sapiens, read-out: Tumor cell inhibitory activity (NCI) GI50
MDA-MB-435 = experiment: NCI 60 panel, Melanoma MDA-MB-435; assay type: cell-based; conditions: Homo sapiens, read-out: Tumor cell inhibitory activity (NCI) GI50
IGROVI = experiment: NCI 60 panel, Ovarian cancer IGROVI; assay type: cell-based; conditions: read-out: Tumor cell inhibitory activity (NCI) GI50
OVCAR-8 = experiment: NCI 60 panel, Ovarian cancer OVCAR-8; assay type: cell-based; conditions: Homo sapiens, read-out: Tumor cell inhibitory activity (NCI) GI50
PDGFRβ = PDGFRβ (Homo sapiens, UniProt P09619); experiment: PDGFRβ kinase inhibition, whole-cell assay; assay type: cell-based
UACC-257 = experiment: NCI 60 panel, Melanoma UACC-257; assay type: cell-based; conditions: Homo sapiens, read-out: Tumor cell inhibitory activity (NCI) GI50
HT29 = experiment: NCI 60 panel, Colon Cancer HT29; assay type: cell-based; conditions: Homo sapiens, HT-29, read-out: Tumor cell inhibitory activity (NCI) GI50
A498 = experiment: NCI 60 panel, Renal Cancer A498; assay type: cell-based; conditions: Homo sapiens, read-out: Tumor cell inhibitory activity (NCI) GI50
bovine brain tubulin = experiment: inhibition of tubulin assembly; assay type: biochemical
OVCAR-5 = experiment: NCI 60 panel, Ovarian cancer OVCAR-5; assay type: cell-based; conditions: Homo sapiens, read-out: Tumor cell inhibitory activity (NCI) GI50
MDA-MB-231/ATCC = experiment: NCI 60 panel, Breast Cancer MDA-MB-231/ATCC; assay type: cell-based; conditions: Homo sapiens, read-out: Tumor cell inhibitory activity (NCI) GI50
SNB-75 = experiment: NCI 60 panel, CNS Cancer SNB-75; assay type: cell-based; conditions: Homo sapiens, read-out: Tumor cell inhibitory activity (NCI) GI50
ACHN = experiment: NCI 60 panel, Renal Cancer ACHN; assay type: cell-based; conditions: Homo sapiens, read-out: Tumor cell inhibitory activity (NCI) GI50
NCI-H522 = experiment: NCI 60 panel, NSCLC NCI-H522; assay type: cell-based; conditions: Homo sapiens, read-out: Tumor cell inhibitory activity (NCI) GI50
U251 = experiment: NCI 60 panel, CNS Cancer U251; assay type: cell-based; conditions: Homo sapiens, U-251, read-out: Tumor cell inhibitory activity (NCI) GI50
wild type HeLa cells = experiment: HeLa cytotoxicity, wild type; assay type: cell-based; conditions: Homo sapiens
CCRF-CEM = experiment: NCI 60 panel, Leukemia CCRF-CEM; assay type: cell-based; conditions: Homo sapiens, read-out: Tumor cell inhibitory activity (NCI) GI50
SK-MEL-5 = experiment: NCI 60 panel, Melanoma SK-MEL-5; assay type: cell-based; conditions: Homo sapiens, read-out: Tumor cell inhibitory activity (NCI) GI50
SF-295 = experiment: NCI 60 panel, CNS Cancer SF-295; assay type: cell-based; conditions: Homo sapiens, read-out: Tumor cell inhibitory activity (NCI) GI50
[1] = tested on: tubulin (colchicine site); experiment: inhibition of [3H]colchicine binding to tubulin; design: species or system bovine
VEGFR2 = VEGFR2 (Homo sapiens, UniProt P35968); experiment: VEGFR2 kinase inhibition, whole-cell assay; assay type: cell-based; conditions: read-out: kinase inhibition IC50 [whole-cell assays] VEGFR2
UACC-62 = experiment: NCI 60 panel, Melanoma UACC-62; assay type: cell-based; conditions: Homo sapiens, read-out: Tumor cell inhibitory activity (NCI) GI50
HOP-62 = experiment: NCI 60 panel, NSCLC HOP-62; assay type: cell-based; conditions: Homo sapiens, read-out: Tumor cell inhibitory activity (NCI) GI50
A549/ATCC = experiment: NCI 60 panel, NSCLC A549/ATCC; assay type: cell-based; conditions: Homo sapiens, read-out: Tumor cell inhibitory activity (NCI) GI50
DU-145 = experiment: NCI 60 panel, Prostate Cancer DU-145; assay type: cell-based; conditions: Homo sapiens, read-out: Tumor cell inhibitory activity (NCI) GI50
NCI-H460 = experiment: NCI 60 panel, NSCLC NCI-H460; assay type: cell-based; conditions: Homo sapiens, read-out: Tumor cell inhibitory activity (NCI) GI50
[2] = tested on: NCI 60 tumor cell line panel; experiment: NCI 60 tumor cell line panel, overall; assay type: cell-based
NCI-H226 = experiment: NCI 60 panel, NSCLC NCI-H226; assay type: cell-based; conditions: Homo sapiens, read-out: Tumor cell inhibitory activity (NCI) GI50
KM12 = experiment: NCI 60 panel, Colon Cancer KM12; assay type: cell-based; conditions: Homo sapiens, read-out: Tumor cell inhibitory activity (NCI) GI50
HCT-15 = experiment: NCI 60 panel, Colon Cancer HCT-15; assay type: cell-based; conditions: Homo sapiens, read-out: Tumor cell inhibitory activity (NCI) GI50
NCI-H23 = experiment: NCI 60 panel, NSCLC NCI-H23; assay type: cell-based; conditions: Homo sapiens, read-out: Tumor cell inhibitory activity (NCI) GI50
SK-OV-3 = experiment: NCI 60 panel, Ovarian cancer SK-OV-3; assay type: cell-based; conditions: Homo sapiens, read-out: Tumor cell inhibitory activity (NCI) GI50
NCI/ADR-RES = experiment: NCI 60 panel, Ovarian cancer NCI/ADR-RES; assay type: cell-based; conditions: Homo sapiens, read-out: Tumor cell inhibitory activity (NCI) GI50
SR = experiment: NCI 60 panel, Leukemia SR; assay type: cell-based; conditions: Homo sapiens, read-out: Tumor cell inhibitory activity (NCI) GI50
786-0 = experiment: NCI 60 panel, Renal Cancer 786-0; assay type: cell-based; conditions: Homo sapiens, read-out: Tumor cell inhibitory activity (NCI) GI50
[3] = tested on: blood vessel formation in the chicken chorioallantoic membrane (CAM); experiment: chicken chorioallantoic membrane (CAM) antiangiogenic activity assay; assay type: in vivo; conditions: Gallus gallus
MALME-3M = experiment: NCI 60 panel, Melanoma MALME-3M; assay type: cell-based; conditions: Homo sapiens, read-out: Tumor cell inhibitory activity (NCI) GI50
M14 = experiment: NCI 60 panel, Melanoma M14; assay type: cell-based; conditions: Homo sapiens, read-out: Tumor cell inhibitory activity (NCI) GI50
HOP-92 = experiment: NCI 60 panel, NSCLC HOP-92; assay type: cell-based; conditions: Homo sapiens, read-out: Tumor cell inhibitory activity (NCI) GI50
PC-3 = experiment: NCI 60 panel, Prostate Cancer PC-3; assay type: cell-based; conditions: Homo sapiens, read-out: Tumor cell inhibitory activity (NCI) GI50
BT-549 = experiment: NCI 60 panel, Breast Cancer BT-549; assay type: cell-based; conditions: Homo sapiens, read-out: Tumor cell inhibitory activity (NCI) GI50
LOX IMVI = experiment: NCI 60 panel, Melanoma LOX IMVI; assay type: cell-based; conditions: Homo sapiens, read-out: Tumor cell inhibitory activity (NCI) GI50
NCI-H322M = experiment: NCI 60 panel, NSCLC NCI-H322M; assay type: cell-based; conditions: Homo sapiens, read-out: Tumor cell inhibitory activity (NCI) GI50
[4] = compared with combretastatin A-4

PDGFRβ, sequence (P09619 33-1106, species assumed): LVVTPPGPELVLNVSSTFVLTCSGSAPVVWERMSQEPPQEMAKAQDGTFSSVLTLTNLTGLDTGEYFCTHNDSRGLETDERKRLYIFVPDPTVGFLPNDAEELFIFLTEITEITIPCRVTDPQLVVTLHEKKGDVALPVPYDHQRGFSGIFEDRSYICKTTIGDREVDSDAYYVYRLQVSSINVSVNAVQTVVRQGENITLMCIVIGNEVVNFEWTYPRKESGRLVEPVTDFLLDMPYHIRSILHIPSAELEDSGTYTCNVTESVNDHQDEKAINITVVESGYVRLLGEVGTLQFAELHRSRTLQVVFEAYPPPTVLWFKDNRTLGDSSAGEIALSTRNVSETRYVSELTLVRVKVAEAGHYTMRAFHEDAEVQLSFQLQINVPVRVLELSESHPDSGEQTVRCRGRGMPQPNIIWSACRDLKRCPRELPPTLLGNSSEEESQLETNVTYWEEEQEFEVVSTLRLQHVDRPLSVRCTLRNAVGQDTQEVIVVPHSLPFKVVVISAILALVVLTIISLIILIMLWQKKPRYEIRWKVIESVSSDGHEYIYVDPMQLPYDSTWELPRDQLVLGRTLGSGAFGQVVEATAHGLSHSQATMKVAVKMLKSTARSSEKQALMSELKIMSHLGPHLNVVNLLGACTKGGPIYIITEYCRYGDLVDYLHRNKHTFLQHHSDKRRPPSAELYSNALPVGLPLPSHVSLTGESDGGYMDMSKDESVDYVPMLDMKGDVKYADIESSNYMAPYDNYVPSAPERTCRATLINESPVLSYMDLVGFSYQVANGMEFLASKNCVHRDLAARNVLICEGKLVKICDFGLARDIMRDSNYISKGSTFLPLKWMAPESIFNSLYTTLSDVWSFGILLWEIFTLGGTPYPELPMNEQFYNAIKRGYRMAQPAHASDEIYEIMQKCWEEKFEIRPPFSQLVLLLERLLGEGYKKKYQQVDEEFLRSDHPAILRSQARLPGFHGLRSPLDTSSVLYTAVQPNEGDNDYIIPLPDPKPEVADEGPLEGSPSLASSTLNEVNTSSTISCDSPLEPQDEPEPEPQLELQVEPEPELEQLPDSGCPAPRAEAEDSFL
VEGFR2, sequence (P35968 20-1356, species assumed): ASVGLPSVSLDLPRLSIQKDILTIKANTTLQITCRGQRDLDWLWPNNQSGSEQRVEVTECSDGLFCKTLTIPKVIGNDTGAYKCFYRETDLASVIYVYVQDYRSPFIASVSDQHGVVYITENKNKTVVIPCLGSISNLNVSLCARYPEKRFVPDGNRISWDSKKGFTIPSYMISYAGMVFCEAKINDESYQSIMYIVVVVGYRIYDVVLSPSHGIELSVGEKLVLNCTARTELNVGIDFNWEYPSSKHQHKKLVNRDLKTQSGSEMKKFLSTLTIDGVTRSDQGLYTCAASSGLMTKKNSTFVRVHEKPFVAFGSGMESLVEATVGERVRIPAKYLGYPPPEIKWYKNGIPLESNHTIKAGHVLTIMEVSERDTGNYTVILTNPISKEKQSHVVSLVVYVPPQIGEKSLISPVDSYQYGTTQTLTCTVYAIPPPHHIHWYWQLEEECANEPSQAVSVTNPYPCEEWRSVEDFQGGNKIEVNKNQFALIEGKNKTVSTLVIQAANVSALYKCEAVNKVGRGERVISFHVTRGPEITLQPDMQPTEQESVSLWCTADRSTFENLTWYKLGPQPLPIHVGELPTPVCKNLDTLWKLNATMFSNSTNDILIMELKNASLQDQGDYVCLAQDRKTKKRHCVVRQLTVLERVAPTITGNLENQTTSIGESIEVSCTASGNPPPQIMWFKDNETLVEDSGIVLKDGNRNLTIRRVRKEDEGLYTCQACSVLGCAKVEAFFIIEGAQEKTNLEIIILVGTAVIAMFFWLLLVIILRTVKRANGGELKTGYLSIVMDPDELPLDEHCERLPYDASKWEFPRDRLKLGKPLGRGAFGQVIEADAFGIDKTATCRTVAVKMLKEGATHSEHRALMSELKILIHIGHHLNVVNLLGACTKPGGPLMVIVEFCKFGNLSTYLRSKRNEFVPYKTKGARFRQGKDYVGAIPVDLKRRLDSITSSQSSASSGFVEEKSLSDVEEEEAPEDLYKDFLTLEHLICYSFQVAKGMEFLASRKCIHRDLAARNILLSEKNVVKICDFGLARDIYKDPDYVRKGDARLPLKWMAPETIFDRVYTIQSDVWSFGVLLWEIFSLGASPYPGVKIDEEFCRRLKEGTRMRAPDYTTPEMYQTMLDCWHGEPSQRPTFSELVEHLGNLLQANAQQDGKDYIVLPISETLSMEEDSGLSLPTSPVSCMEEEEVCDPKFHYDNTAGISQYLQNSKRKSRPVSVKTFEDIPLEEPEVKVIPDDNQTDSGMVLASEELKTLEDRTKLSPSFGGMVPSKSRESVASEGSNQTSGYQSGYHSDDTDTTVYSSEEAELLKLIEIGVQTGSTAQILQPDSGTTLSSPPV

COc1ccc(N(C)c2nc(C)nc3c(Cc4ccccc4)cn(C)c23)cc1 [Compound 4, 7-Benzyl-N-(4-methoxyphenyl)-N,2,5-trimethyl-5H-pyrrolo[3,2-d]pyrimidin-4-amine]
GI50 (OVCAR-3): 0.0352 µM
GI50 (SK-MEL-28): 0.0487 µM
GI50 (MOLT-4): 0.0508 µM
GI50 (SF-268): 0.35 µM
GI50 (COLO 205): 0.0263 µM
GI50 (MDA-MB-468): 0.0301 µM
GI50 (HCT-116): 0.035 µM
GI50 (SN12C): 0.0887 µM
GI50 (HS 578T): 0.0623 µM
GI50 (MDA-MB-435): 0.0214 µM
GI50 (IGROVI): 0.0958 µM
GI50 (OVCAR-8): 0.0491 µM
potency against PDGFRβ, in words (PDGFRβ): potencies comparable with DMBI
IC50 (PDGFRβ; whole-cell assay, read-out: kinase inhibition IC50 [whole-cell assays] PDGFRβ): 0.0103 µM
GI50 (UACC-257): 0.0782 µM
GI50 (HT29): 0.0351 µM
GI50 (A498): 0.0202 µM
IC50 (bovine brain tubulin; bovine tubulin): 0.48 ± 0.008 µM
inhibition of bovine tubulin assembly, in words (bovine brain tubulin; [4]): effective and potent inhibitors
GI50 (OVCAR-5): 0.269 µM
GI50 (MDA-MB-231/ATCC): 0.0637 µM
GI50 (SNB-75): 0.0278 µM
GI50 (ACHN): 0.172 µM
GI50 (NCI-H522): 0.0239 µM
GI50 (U251): 0.0443 µM
IC50 (wild type HeLa cells): 0.014 ± 0.002 µM
GI50 (CCRF-CEM): 0.0335 µM
GI50 (SK-MEL-5): 0.0542 µM
GI50 (SF-295): 0.0304 µM
inhibition of colchicine binding (1 μM inhibitor) ([1]; 1 μM inhibitor, [3H]colchicine, in % (unit assumed)): 73 ± 3
inhibition of colchicine binding (5 μM inhibitor) ([1]; 5 μM inhibitor, [3H]colchicine, in % (unit assumed)): 92 ± 0.2
inhibition of [3H]colchicine binding to tubulin, in words [1, 4]: potent inhibitors
IC50 (VEGFR2): 0.033 µM
GI50 (UACC-62): 0.475 µM
GI50 (HOP-62): 0.0478 µM
GI50 (A549/ATCC): 0.044 µM
GI50 (DU-145): 0.0444 µM
GI50 (NCI-H460): 0.0387 µM
GI50 across the NCI 60 tumor cell line panel, in words [2]: 2- to 3-digit nanomolar
GI50 (NCI-H226): 0.304 µM
GI50 (KM12): 0.0445 µM
GI50 (HCT-15): 0.0381 µM
GI50 (NCI-H23): 0.0458 µM
GI50 (SK-OV-3): 0.0454 µM
GI50 (NCI/ADR-RES): 0.0328 µM
GI50 (SR): 0.0338 µM
GI50 (786-0): 0.0932 µM
IC50 [3]: 2.2 ± 0.4 µM
GI50 (MALME-3M): 0.0177 µM
GI50 (M14): 0.0295 µM
GI50 (HOP-92): 0.0471 µM
GI50 (PC-3): 0.0496 µM
GI50 (BT-549): 0.0482 µM
GI50 (LOX IMVI): 0.0588 µM
GI50 (NCI-H322M): 0.0736 µM
